Assay results reported in patent US20260294922A1, “Inhibitors of JUN N-Terminal Kinases (JNK1, JNK2, and/or JNK3) and Mitogen-Activated Protein Kinases (MAPK8, MAPK9, and/or MAPK10) and Methods of Using Same” (Baylor College of Medicine, priority 2023, published 2026).
Entries after “also recorded” stand apart in the source; their conditions may differ. Read-outs that look alike come from different tables or passages of the source.

Key:
480 kinases = assay: Eurofins KINOMEscan selectivity profile; assay type: binding; conditions: Bentamapimod and Tanzisertib at 1 μM
JNK1 = JNK1 (Homo sapiens, UniProt P45983); assay: ThermoFisher SelectScreen, JNK1; assay type: binding
ERK1 = target: T1, ERK1 (Homo sapiens, UniProt P27361); assay: ThermoFisher SelectScreen, ERK1; assay type: binding
T1 construct: purchased ThermoFisher (SelectScreen, outsourced service)

[1] = Pharmacokinetics after intraperitoneal administration in mice; assay type: in vivo; conditions: mouse, ip, 50 mg/kg, plasma
Excerpt: Based on stability and estimated half-life of compounds exposed to liver microsome in vitro, CDD-2728 was selected for PK evaluation.

[2] = test system: human endometriotic stromal cells (patient 143); assay: IL-1β-stimulated pro-inflammatory gene expression in primary endometriotic stromal cells, patient 143; assay type: cell-based; conditions: patient 143, relative to CDD-939
Excerpt: Similar to patient “50”, lower concentrations of CDD-2728 were required to reduce the proinflammatory response of IL-1β in stromal cells on these measured genes than in 12Z epithelial cells.
To confirm and further support the results described herein, endometriotic stromal cell cultures were established from a second patient. For compliance purposes, this set of cell culture results are identified as Eosis143. These are stromal cells obtained from the lining of an ovarian endometrioma cyst wall.

endometriotic lesions [3] = assay: Mouse model of induced endometriosis; conditions: 14 days of treatment
Description: FIG. 22A presents the design of an in vivo model in which JNK-I were evaluated for their ability to cause regression of endometriosis in mice. […] In this experimental design, endometriosis is induced by introducing isolated endometrial tissues from a donor mouse, and the prepared endometrial cells are introduced into the peritoneal cavity of recipient mice. Fourteen (14) days after induction of endometriosis, drug treatments are initiated and continued for 14 days. At the end of study (i.e., 28 days) the presence of endometriosis lesions are determined and various measurements performed.

endometriotic lesions [4] = assay: Immunofluorescent staining of endometriotic lesions from treated mice; assay type: in vivo; conditions: 14 days, intraperitoneal
Excerpt: FIG. 23 depicts immunofluorescent staining of sections of remaining endometriotic lesions following 14 days of treatment with CDD-2728 or with a vehicle solution (i.e., Captisol) by intraperitoneal administration.
This illustrates a common mechanism of JNK-I from the chemical series of the disclosure and their ability to target endometriotic lesions, and the innate immune cells that drive an inflammatory response within the lesions.

[5] = test system: immortalized human endometriotic epithelial cells (iHEEC); assay: Phosphorylation of JNK and Jun in iHEEC; assay type: cell-based
Excerpt: FIG. 26A depicts the effects of CDD-2728 and CDD-3013 on phosphorylation of the JNK enzyme itself (i.e., representing MEK4 inhibition) and phosphorylation of pSer63 and pSer73 on the transcription factor Jun in immortalized human endometriotic epithelial cells (iHEEC). The HEEC cells are a well characterized cell line that are relevant for the evaluation of inflammatory endpoints and measures of epithelial-to-mesenchymal transitions (EMT). […] This is consistent with the potency relationships of CDD-2728 relative to bentamapimod observed in cytokine gene expression described above in iHEEC cells and primary human stromal endometriotic cells. […] SP600125 has been frequently described as a poorly-selective JNK-I but in this context provides additional confirmation of inhibition of the JNK target kinase for CDD-2728. […] This adds further support to the critical role of JNK-1 to the therapeutic effect of the JNK inhibitors of the disclosure.

pSer63 and pSer73 Jun = assay: In-cell Western blot of Jun phosphorylation; assay type: cell-based; conditions: 0.1, 1 and 10 μM
Description: The top section of the in-cell Western is pSer73 and the lower section is pSer63. Experiments were performed in triplicate for 3 concentrations (0.1 μM, 1 μM, and 10 μM) FIGS. 27B-27C: graphical summary of the in-cell Western blot is provided for pSer73 (FIG. 27B) and pSer63 (FIG. 27C).

iHEEC = assay: Cell morphology, phospho-JNK and vimentin staining in iHEEC; assay type: cell-based, human
Excerpt: FIGS. 28A-28C depict the impact of JNK inhibition on the cellular morphology and expression of surface marker, vimentin in iHEEC. […] Phospho-JNK staining in iHEEC can be either punctate staining in intracellular organelles or disperse staining through the cytoplasmic space of cells.

HepG2 cells = assay: HepG2 cell viability (ATP consumption); conditions: CDD-2575 25 μM; CDD-2728, CDD-2624 up to 75
Description: This assay reflects cell viability. […] To determine if the responses observed in endometriotic epithelial cells and endometriotic stromal cell cultures were cytotoxic, cell viability was performed in HepG2 cells.

T1 sequence (P27361 whole entry): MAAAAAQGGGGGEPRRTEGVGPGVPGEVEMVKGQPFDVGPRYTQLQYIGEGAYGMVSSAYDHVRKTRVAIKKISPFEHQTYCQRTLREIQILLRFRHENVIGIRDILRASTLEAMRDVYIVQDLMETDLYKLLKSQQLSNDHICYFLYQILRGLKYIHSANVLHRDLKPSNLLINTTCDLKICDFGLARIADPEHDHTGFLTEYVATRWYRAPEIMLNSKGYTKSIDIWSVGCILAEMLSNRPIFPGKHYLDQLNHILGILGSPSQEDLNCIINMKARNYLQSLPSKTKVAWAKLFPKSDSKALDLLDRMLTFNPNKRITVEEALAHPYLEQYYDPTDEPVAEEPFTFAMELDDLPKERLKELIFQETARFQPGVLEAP
JNK1, sequence (P45983 whole entry): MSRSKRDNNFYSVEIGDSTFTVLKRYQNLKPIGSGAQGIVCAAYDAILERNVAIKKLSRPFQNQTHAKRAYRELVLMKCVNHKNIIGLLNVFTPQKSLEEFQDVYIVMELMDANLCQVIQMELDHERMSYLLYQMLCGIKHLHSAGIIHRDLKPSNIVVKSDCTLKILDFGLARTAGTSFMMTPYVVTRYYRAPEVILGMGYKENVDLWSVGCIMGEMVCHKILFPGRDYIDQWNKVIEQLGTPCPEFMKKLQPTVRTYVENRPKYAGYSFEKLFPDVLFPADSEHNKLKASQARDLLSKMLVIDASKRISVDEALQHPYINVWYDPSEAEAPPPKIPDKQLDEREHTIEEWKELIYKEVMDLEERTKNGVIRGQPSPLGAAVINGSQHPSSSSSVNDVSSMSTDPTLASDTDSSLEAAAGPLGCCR

Compound: CNCc1ccc(NC(=O)c2ccn3ncc(-c4cnc5[nH]ccc5c4)c3c2)cc1 [CDD-2346, N-(4-((methylamino)methyl)phenyl)-3-(1H-pyrrolo[2,3-b]pyridin-5-yl)pyrazolo[1,5-a]pyridine-5-carboxamide]
- KINOMEscan selectivity / inhibition (480 kinases): selectivity of CDD-2346 was inadequate

Compound: CN(C)C(=O)c1cc(NC(=O)c2cc3c(-c4cnc5[nH]ccc5c4)cccc3s2)ccc1O [CDD-2728, N-(3-(dimethylcarbamoyl)-4-hydroxyphenyl)-4-(1H-pyrrolo[2,3-b]pyridin-5-yl)benzo[b]thiophene-2-carboxamide]
- Kd (JNK1): 1 nM
- Kd (ERK1): 909 nM
- inhibition of ERK1/2 (ERK1; ERK1/2, in words): only modest inhibition of ERK1/2
- AUC(0-inf) [1]: 8.03 ± 2.52 µM·h
- AUC(0-t) [1]: 5.7 ± 2.53 µM·h
- CL/F [1]: 245 mL/min/kg
- Cmax [1]: 440 ± 190 nM
- Tmax [1]: 3 ± 1.15 h
- MRT last ([1]; read-out: MRT0-t): 8.57 ± 1.33 h
- MRT inf ([1]; read-out: MRT0-∞): 20.5 ± 13 h
- half-life ([1]; read-out: T1/2 (converted)): 14.2 ± 8.92 h
- half-life ([1]; read-out: half-life, injected into the peritoneal cavity (converted)): 14 h
- inhibition of IL-6, IL-8, MMP-3 and PTGS2 gene expression [2]: at lower doses than was required for inhibition of expression of these genes by CDD-939; also recorded: superior to bentamapimod in efficacy of suppression and potency
- impact on uterine, liver or kidney weight / other tissues (endometriotic lesions [3]): no impact
- CD31 (endothelial cells, angiogenesis) (endometriotic lesions [4]): reduces the presence of cells corresponding to leukocytes, platelets, and endothelial cells (CD31); also recorded: angiogenesis (anti-CD31 antibody)
- macrophage infiltration (F4/80) (endometriotic lesions [4]): decreases infiltration of endometriotic lesions by macrophages (F4/80)
- proliferation of lesions (Ki67) (endometriotic lesions [4]): reduced rates of proliferative cell growth; also recorded: reduced cellular proliferation
- phosphorylation of JNK1 (P46) and JNK2 (P54) [5]: inhibits phosphorylation of JNK1 (P46) and JNK2 (P54)
- phosphorylation of Jun at pSer63 and pSer73 [5]: more effectively than CDD-939
- Jun phosphorylation (pSer73, pSer63), relative to Tanzisertib (pSer63 and pSer73 Jun): more effective inhibitors of Jun phosphorylation than Tanzisertib
- phospho-JNK staining (iHEEC): reduce the intensity of phospho-JNK staining
- vimentin staining (iHEEC): not a dramatic change in the vimentin staining
- effect on HepG2 cell viability / ATP consumption (HepG2 cells): tolerated (up to 75 μM); also recorded: neither CDD-2624 or CDD-2728 had significant effects on ATP consumption
